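Compound exposure: 48 hours, 5 concentrations, 96-well plates. GI50 is the concentration that inhibits growth by half. TGI: concentration producing complete growth inhibition.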
Assays:
Assay in all cases: NCI tumour cell line growth inhibition, 48 h
COLO 205 colon = test system: COLO 205 colon
UACC-62 melanoma = test system: UACC-62 melanoma
KM12 colon = test system: KM12 colon
SK-MEL-28 melanoma = test system: SK-MEL-28 melanoma
HCT-15 colon = test system: HCT-15 colon
NCI/ADR-RES ovarian = test system: NCI/ADR-RES ovarian
UACC-257 melanoma = test system: UACC-257 melanoma
SK-OV-3 ovarian = test system: SK-OV-3 ovarian
EKVX NSCLC = test system: EKVX NSCLC
SK-MEL-5 melanoma = test system: SK-MEL-5 melanoma

Row | SMILES | TGI (COLO 205 colon) [µM] | TGI (UACC-62 melanoma) [µM] | TGI (KM12 colon) [µM] | TGI (SK-MEL-28 melanoma) [µM] | TGI (HCT-15 colon) [µM] | TGI (NCI/ADR-RES ovarian) [µM] | TGI (UACC-257 melanoma) [µM] | TGI (SK-OV-3 ovarian) [µM] | TGI (EKVX NSCLC) [µM] | TGI (SK-MEL-5 melanoma) [µM] | GI50 (COLO 205 colon) [µM] | GI50 (UACC-62 melanoma) [µM] | GI50 (KM12 colon) [µM] | GI50 (SK-MEL-28 melanoma) [µM] | GI50 (HCT-15 colon) [µM] | GI50 (NCI/ADR-RES ovarian) [µM] | GI50 (UACC-257 melanoma) [µM] | GI50 (EKVX NSCLC) [µM] | GI50 (SK-MEL-5 melanoma) [µM]
1 | C=CCSSCC=C | > 100 | > 100 | > 100 | > 100 | > 100 | > 73.2 | > 100 | > 100 | > 100 | > 100 | – | – | – | – | – | – | – | – | –
2 | COc1ccc(NC(=S)N/N=C(\C)c2nc3ncccc3[nH]2)cc1 | > 100 | 73.2 | > 100 | > 100 | > 100 | > 100 | > 100 | > 100 | > 100 | 29.1 | – | – | – | – | – | – | – | – | –
3 | O=C1OC2CC=CC1C2 (centres undefined) | > 100 | > 100 | > 100 | > 100 | > 100 | > 100 | > 100 | > 100 | > 100 | > 100 | – | – | – | – | – | – | – | – | –
4 | CC(C)(C)c1ccc(/C=N/NC(=O)CSCC(=O)N/N=C/c2ccc(C(C)(C)C)cc2)cc1 | 3.7 | 32 | 6.18 | 20.6 | 15.8 | 15.5 | 15.2 | 19.4 | 19.8 | 4.3 | – | – | – | – | – | – | – | – | –
5 | O=C(COc1ccc(Cl)c(Cl)c1)N(Cc1ccccc1)Cc1ccc[n+](Cc2ccc(Cl)cc2S(=O)(=O)F)c1 | > 100 | > 100 | 56.6 | > 100 | > 100 | > 100 | > 100 | > 100 | – | 64.7 | – | – | – | – | – | – | – | – | –
6 | O=C1CCCC2C3CC(CN12)C1CCCCN1C3 (centres undefined) | > 100 | > 100 | > 100 | > 100 | > 100 | > 100 | > 100 | > 100 | > 100 | > 100 | – | – | – | – | – | – | – | – | –
7 | C=C1C(=O)OC2CC1CCC1(C)OC1CCC(C)=CCCC2(C)O (centres undefined) | 5.95 | 10 | 12.9 | 10.7 | 7.79 | 5.84 | 13.9 | 36.7 | 13.9 | 10.2 | – | – | – | – | – | – | – | – | –
8 | CN1CC(CNC(=O)OCc2ccccc2)CC2c3cccc4c3c(cn4C)CC21 (centres undefined) | 2.75 | 3.17 | 4.65 | 3.03 | 3.52 | 4.49 | 2.81 | – | 21.3 | 2.86 | 1.37 | 1.66 | 2.14 | 1.62 | 1.69 | 1.82 | 1.42 | 5.2 | 1.49
9 | Cc1cc(C)nc(SCCc2cccc[n+]2C)n1 | > 100 | > 100 | > 100 | > 100 | > 100 | > 100 | > 100 | > 100 | > 100 | > 100 | – | – | – | – | – | – | – | – | –
10 | CC(=O)NNC(=O)C1CCCCN1 (centres undefined) | > 100 | – | > 100 | > 100 | > 100 | – | > 100 | > 100 | > 100 | > 100 | – | – | – | – | – | – | – | – | –
11 | O=C1OCc2cc3cc4c(cc3c(-c3ccc5c(c3)OCO5)c21)OCO4 (tested in a mixture with another compound) | 75.1 | 68 | > 100 | > 100 | > 100 | > 100 | > 100 | 48.1 | – | 33.6 | – | – | – | – | – | – | – | – | –
12 | Cl/C(=C\C=Nc1ccc(I)cc1)c1ccc2ccccc2c1 | 43 | 34.3 | 33.5 | 46.2 | 33.8 | 32.5 | 33.8 | 74.4 | > 100 | 38.7 | – | – | – | – | – | – | – | – | –
13 | CC[C@]12C=CCN3CC[C@@]4(c5cc(Br)c(OC)cc5N(C)[C@H]4[C@@](O)(C(=O)N[C@@H](Cc4ccc(O)cc4)C(=O)OC)[C@@H]1O)[C@@H]32 | 33.1 | 33.9 | 38.5 | > 100 | 76.3 | 62.3 | 33.9 | > 100 | > 100 | 31.4 | – | – | – | – | – | – | – | – | –

— PubChem BioAssay (NCI)
